Calls of active or inactive are those of the source. No cut-off for these calls is given here.
How the values were obtained:
[1] = Genotoxicity in Salmonella typhimurium TA98 assessed as mutagenic index at 2.5 ug by AMES test; type: toxicity, Salmonella enterica subsp. enterica serovar Typhimurium; details: in vivo; dose 2.5 µg
[2] = Genotoxicity in Salmonella typhimurium TA98 assessed as number of revertant at 2.5 ug by AMES test (reference value: 8 to 8.3); type: toxicity, Salmonella enterica subsp. enterica serovar Typhimurium; details: in vivo; dose 2.5 µg
[3] = Genotoxicity in Salmonella typhimurium TA100 assessed as number of revertant at 10 ug by AMES test (reference value: 64.3 to 130.7); type: toxicity, Salmonella enterica subsp. enterica serovar Typhimurium; details: in vivo; dose 10 µg
in vitro [4] = details: mouse, microsomes
Description: Metabolic stability in mouse microsome assessed as half life

[5] = Protection index, ratio of TD50 for toxicity in ip dosed mouse to ED50 for anticonvulsant activity in ip dosed mouse; type: organism-based; details: in vivo, read-out: PI
[6] = Genotoxicity in Salmonella typhimurium TA98 assessed as number of revertant at 200 ug by AMES test (reference value: 8 to 8.3); type: toxicity, Salmonella enterica subsp. enterica serovar Typhimurium; details: in vivo; dose 200 µg
[7] = Genotoxicity in Salmonella typhimurium TA98 assessed as number of revertant at 500 ug by AMES test (reference value: 8 to 8.3); type: toxicity, Salmonella enterica subsp. enterica serovar Typhimurium; details: in vivo; dose 500 µg
in vitro [8] = details: mouse, microsomes; remark: listed apart in the source
Description: Metabolic stability in mouse microsome assessed as intrinsic clearance

[9] = Toxicity in mouse assessed as lethality at 50 mg/kg, ip; type: organism-based; details: in vivo
[10] = Genotoxicity in Salmonella typhimurium TA100 assessed as mutagenic index at 750 ug by AMES test; type: toxicity, Salmonella enterica subsp. enterica serovar Typhimurium; details: in vivo; dose 750 µg
[11] = Genotoxicity in Salmonella typhimurium TA98 assessed as mutagenic index at 75 ug by AMES test; type: toxicity, Salmonella enterica subsp. enterica serovar Typhimurium; details: in vivo; dose 75 µg
[12] = Genotoxicity in Salmonella typhimurium TA100 assessed as mutagenic index at 75 ug by AMES test; type: toxicity, Salmonella enterica subsp. enterica serovar Typhimurium; details: in vivo; dose 75 µg
[13] = Toxicity in ip dosed mouse assessed as motor impairment by rotarod test; type: organism-based; details: in vivo
[14] = Genotoxicity in Salmonella typhimurium TA98 assessed as number of revertant at 75 ug by AMES test (reference value: 8 to 8.3); type: toxicity, Salmonella enterica subsp. enterica serovar Typhimurium; details: in vivo; dose 75 µg
[15] = Genotoxicity in Salmonella typhimurium TA98 assessed as mutagenic index at 500 ug by AMES test; type: toxicity, Salmonella enterica subsp. enterica serovar Typhimurium; details: in vivo; dose 500 µg
[16] = Genotoxicity in Salmonella typhimurium TA98 assessed as mutagenic index at 200 ug by AMES test; type: toxicity, Salmonella enterica subsp. enterica serovar Typhimurium; details: in vivo; dose 200 µg
[17] = Genotoxicity in Salmonella typhimurium TA98 assessed as number of revertant at 750 ug by AMES test (reference value: 8 to 8.3); type: toxicity, Salmonella enterica subsp. enterica serovar Typhimurium; details: in vivo; dose 750 µg
Mus musculus = assay: Anticonvulsant activity in ip dosed mouse assessed as protection against current-induced seizure by maximal electroshock seizure test; type: functional
[18] = Genotoxicity in Salmonella typhimurium TA100 assessed as mutagenic index at 10 ug by AMES test; type: toxicity, Salmonella enterica subsp. enterica serovar Typhimurium; details: in vivo; dose 10 µg
[19] = Genotoxicity in Salmonella typhimurium TA98 assessed as mutagenic index at 10 ug by AMES test; type: toxicity, Salmonella enterica subsp. enterica serovar Typhimurium; details: in vivo; dose 10 µg
[20] = Genotoxicity in Salmonella typhimurium TA98 assessed as mutagenic index at 750 ug by AMES test; type: toxicity, Salmonella enterica subsp. enterica serovar Typhimurium; details: in vivo; dose 750 µg
[21] = Genotoxicity in Salmonella typhimurium TA100 assessed as number of revertant at 75 ug by AMES test (reference value: 64.3 to 130.7); type: toxicity, Salmonella enterica subsp. enterica serovar Typhimurium; details: in vivo; dose 75 µg
[22] = Genotoxicity in Salmonella typhimurium TA98 assessed as number of revertant at 10 ug by AMES test (reference value: 8 to 8.3); type: toxicity, Salmonella enterica subsp. enterica serovar Typhimurium; details: in vivo; dose 10 µg
[23] = Genotoxicity in Salmonella typhimurium TA100 assessed as number of revertant at 200 ug by AMES test (reference value: 64.3 to 130.7); type: toxicity, Salmonella enterica subsp. enterica serovar Typhimurium; details: in vivo; dose 200 µg
[24] = Genotoxicity in Salmonella typhimurium TA100 assessed as mutagenic index at 500 ug by AMES test; type: toxicity, Salmonella enterica subsp. enterica serovar Typhimurium; details: in vivo; dose 500 µg
[25] = target: T1, 5-hydroxytryptamine receptor 1A (Homo sapiens) (UniProt P08908); assay: Binding affinity to 5-HT1A (unknown origin) at 10^-5 M; details: dose 1.0 10^-5M
T1 sequence (whole entry): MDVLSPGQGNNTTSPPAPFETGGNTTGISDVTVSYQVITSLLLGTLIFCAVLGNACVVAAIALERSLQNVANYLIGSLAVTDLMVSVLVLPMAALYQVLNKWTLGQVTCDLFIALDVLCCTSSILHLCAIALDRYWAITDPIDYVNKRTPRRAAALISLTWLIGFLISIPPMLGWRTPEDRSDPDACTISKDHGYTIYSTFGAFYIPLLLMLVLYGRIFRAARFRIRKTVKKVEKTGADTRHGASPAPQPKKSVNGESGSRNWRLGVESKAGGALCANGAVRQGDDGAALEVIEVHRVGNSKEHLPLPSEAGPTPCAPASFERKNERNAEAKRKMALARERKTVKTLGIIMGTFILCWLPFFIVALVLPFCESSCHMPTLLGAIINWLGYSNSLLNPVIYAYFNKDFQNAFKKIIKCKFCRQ

[26] = Drug metabolism in mouse microsome assessed as formation of monohydroxylated metabolite; type: ADME; details: microsomes
[27] = Genotoxicity in Salmonella typhimurium TA100 assessed as number of revertant at 500 ug by AMES test (reference value: 64.3 to 130.7); type: toxicity, Salmonella enterica subsp. enterica serovar Typhimurium; details: in vivo; dose 500 µg
[28] = Genotoxicity in Salmonella typhimurium TA100 assessed as number of revertant at 750 ug by AMES test (reference value: 64.3 to 130.7); type: toxicity, Salmonella enterica subsp. enterica serovar Typhimurium; details: in vivo; dose 750 µg
[29] = Genotoxicity in Salmonella typhimurium TA100 assessed as mutagenic index at 200 ug by AMES test; type: toxicity, Salmonella enterica subsp. enterica serovar Typhimurium; details: in vivo; dose 200 µg
[30] = Toxicity in mouse assessed as lethality at 30 mg/kg, ip; type: organism-based; details: in vivo
Clostridioides difficile = assay: Antimicrobial activity against clinical strain Clostridium difficile assessed as reduction in bacterial growth at 0.195 to 100 ug/ml by disk diffusion method; type: organism-based; details: in vivo, dose 0.195-100 µg/ml
Hoylesella loescheii = assay: Antimicrobial activity against Prevotella loescheii ATCC 15930 assessed as reduction in bacterial growth at 0.195 to 100 ug/ml by disk diffusion method; type: organism-based, DSM 19665 = JCM 12249 = ATCC 15930; details: in vivo, dose 0.195-100 µg/ml
[31] = Toxicity in mouse assessed as lethality at 20 mg/kg, ip; type: organism-based; details: in vivo
Escherichia coli [32] = assay: Antimicrobial activity against Escherichia coli ATCC 35218 assessed as reduction in bacterial growth at 0.195 to 100 ug/ml by serial dilution method; type: organism-based; details: in vivo, dose 0.195-100 µg/ml
Escherichia coli [33] = assay: Antimicrobial activity against Escherichia coli ATCC 25922 assessed as reduction in bacterial growth at 0.195 to 100 ug/ml by serial dilution method; type: organism-based; details: in vivo, dose 0.195-100 µg/ml
Staphylococcus aureus [34] = assay: Antimicrobial activity against Staphylococcus aureus ATCC 25923 assessed as reduction in bacterial growth at 0.195 to 100 ug/ml by serial dilution method; type: organism-based; details: in vivo, dose 0.195-100 µg/ml
Salmonella enterica = assay: Antimicrobial activity against Salmonella enterica ATCC 51957 assessed as reduction in bacterial growth at 0.195 to 100 ug/ml by serial dilution method; type: organism-based; details: in vivo, dose 0.195-100 µg/ml
Enterococcus faecalis = assay: Antimicrobial activity against Enterococcus faecalis ATCC 29212 assessed as reduction in bacterial growth at 0.195 to 100 ug/ml by serial dilution method; type: organism-based; details: in vivo, dose 0.195-100 µg/ml
[35] = Antimicrobial activity against clinical strain Bifidobacterium assessed as reduction in bacterial growth at 0.195 to 100 ug/ml by disk diffusion method; details: dose 0.195-100 µg/ml
Bacteroides fragilis = assay: Antimicrobial activity against Bacteroides fragilis ATCC 25285 assessed as reduction in bacterial growth at 0.195 to 100 ug/ml by disk diffusion method; type: organism-based; details: in vivo, dose 0.195-100 µg/ml
[36] = target: T2, 5-hydroxytryptamine receptor 1A (Homo sapiens, UniProt P08908); assay: Binding affinity to 5-HT1A (unknown origin)
T2 sequence (P08908 whole entry): T1 sequence (whole entry)

Staphylococcus aureus [37] = assay: Antimicrobial activity against clinical strain Staphylococcus aureus assessed as reduction in bacterial growth at 0.195 to 100 ug/ml by serial dilution method; type: organism-based; details: in vivo, dose 0.195-100 µg/ml

SMILES: Nc1ccc([N+](=O)[O-])cc1N
- Activity_index [1]: 62.3
- Activity [2]: 519

SMILES: Cc1ccc(OCCCN2CCCC(O)C2)c(C)c1 (racemic)
- Activity [3]: 89.5
- half-life (in vitro [4]): 28.6 min
- selectivity ratio [5]: 3.09
- Activity [6]: 6.7
- Activity [7]: 4.7
- microsomal CLint (in vitro [8]): 60.5 µL/min/mg
- Activity [9]: Non-Toxic
- Activity_index [10]: 53.4
- Activity_index [11]: 0.8
- Activity_index [12]: 1
- TD50 [13]: 108 mg/kg
- Activity [14]: 8
- Activity_index [15]: 1
- Activity_index [16]: 1.2
- Activity [17]: 3.3
- ED50 (Mus musculus): 34.8 mg/kg
- Activity_index [18]: 1.2
- Activity_index [19]: 0.4
- Activity_index [20]: 1
- Activity [21]: 69.5
- Activity [22]: 6.3
- Activity [23]: 88.5
- Activity_index [24]: 1.1
- Activity [25]: inactive
- Drug metabolism [26]: Metabolite_Detected
- Activity [27]: 81
- Activity [28]: 3869.5
- Activity_index [29]: 1.2

SMILES: Cc1ccc(OCCOCCN[C@H](C)CO)c(C)c1
- Activity [30]: Non-Toxic
- Activity (Clostridioides difficile): Non-Toxic
- selectivity ratio [5]: 3.4
- Activity [9]: Non-Toxic
- Activity (Hoylesella loescheii): Non-Toxic
- Activity [31]: Non-Toxic
- TD50 [13]: 93.2 mg/kg
- Activity (Escherichia coli [32]): Non-Toxic
- Activity (Escherichia coli [33]): Non-Toxic
- Activity (Staphylococcus aureus [34]): Non-Toxic
- Activity (Salmonella enterica): Non-Toxic
- Activity (Enterococcus faecalis): Non-Toxic
- Activity [35]: Non-Toxic
- ED50 (Mus musculus): 27.4 mg/kg
- Activity (Bacteroides fragilis): Non-Toxic
- Ki [36]: 4.8 µM
- Activity (Staphylococcus aureus [37]): Non-Toxic

Reference: ChEMBL document CHEMBL4725268, “Anticonvulsant and analgesic in neuropathic pain activity in a group of new aminoalkanol derivatives” (Bioorg Med Chem Lett, 2020)
